# Laboratory results published in patent EP0427860A1, “NEW IMIDAZOLE DERIVATIVES, PRODUCTION THEREOF, AND USES THEREOF AS MEDICINES” (Kyoto Pharmaceutical Industries, Ltd., priority 1989, dated 1990).
# Key:
# [1] = test system: platelet rich plasma (PRP) from rabbits; assay: Inhibitory activities on platelet aggregation (arachidonic acid-induced, transmittance); type: cell-based; details: test drug 10^-6 M, rabbit PRP, aggregation induced by arachidonic acid (0.1 mM); for inhibition at 1 µM: Oryctolagus cuniculus, Platelet, read-out: Experiment 1 10^-6 M inhibition (%)
# Method: Experiment 1 (Inhibitory activities on platelet aggregation)
# Platelet aggregation of platelet rich plasma (PRP) from rabbits was measured with the use of an NKK- hematracer (Niko Bioscience). That is, to PRP (200µ 1) was added a test drug or a solvent at 37°C while stirring at 1000 rpm, and an aggregation-inducing agent was added thereto 1 minute later, to measure the changes in transmittance caused by the platelet aggregation. Arachidonic acid (0.1 mM) was used as the aggregation-inducing agent.
# [2] = test system: lipoperoxide production in rat brain; assay: Inhibitory activities on lipoperoxide production in rat brain (MDA yield, TBA method); type: biochemical; details: rat cerebrum suspension, 37° C for 30 minutes, lipoperoxide measured as MDA yield; read-out: Experiment 2 IC50 value
# Method: Experiment 2 (Inhibitory activities on lipoperoxide production in rat brain)
# To male rats weighing about 300 g was intraperitoneally administered 100 mg/kg of sodium pentobar- bital and the rats were exsanguinated to death while anesthetized, after which the cerebrum was extracted. The extracted cerebrum was washed with ice-cooled physiological saline, dried gently, and weighed. Thereto was added 5-fold amount by weight of a 50 mM phosphatesaline buffer (pH 7.4), which was then suspended by an ultradisperser under ice-cooling, followed by centrifugation at 1300 g and at 4 C for 10 minutes. The supernatant was 5-fold diluted with the above buffer, and used as a suspension for measurement.
# The suspension to which the test drug had been added at 1/100 volume was incubated at 37° C for 30 minutes, and the amount of the resulting lipoperoxide was measured as an MDA yield. The assay of MDA was conducted by a modified method based on Smith et al., and the absorbance of the TBA reaction product at 532 nm was measured.
# TXB2 = assay: Assay of TXB2 in serum after oral administration; type: in vivo; details: 10 mg/kg orally, male rats, blood taken 1 hour later, incubated at 37° C for 90 minutes, Control 192.5
# Method: Experiment 3 (Assay of TXB2)
# The test drug was orally administered to male rats, and 1 hour later, a blood sample was taken from ventral aorta via a polyethylene tube while anesthetized with ether. The blood taken was immediately incubated at 37° C for 90 minutes, and TXB2 was extracted from the serum separated, followed by assay using a [^3H]RIA Kit.
molecule,measurement,setting,value
CCOC(=O)CCN1CC(CCn2ccnc2)c2ccccc21 (stereo not shown) [Example 1],inhibition at 1 µM,[1],40.3%
same,IC50,[2],93 µM
CC(C)c1ccc2c(c1)C(CCn1ccnc1)CN2CCC(=O)O (stereo not shown) [Example 15],inhibition at 1 µM,[1],1.6%
same,IC50,[2],24.8 µM
Ethyl 3-[2-(1 H-imidazol-1-yl)ethyl]-1-indolineacetate [Example 5],Experiment 1 10^-6 M inhibition (%),[1],20.3%
same,IC50,[2],25 µM
CCOC(=O)CCN1CC(CCn2ccnc2)c2cc(C3CCCCC3)ccc21 (stereo not shown) [Example 16],inhibition at 1 µM,[1],2.1%
CCCCCCCOc1ccc2c(c1)C(CCn1ccnc1)CN2CCC(=O)OCC (stereo not shown) [Example 22],inhibition at 1 µM,[1],37%
CCOC(=O)CCN1CC(CCn2ccnc2)c2cc(C(C)C)ccc21 (stereo not shown) [Example 14],inhibition at 1 µM,[1],14.5%
same,IC50,[2],6 µM
C=CCOc1ccc2c(c1)C(CCn1ccnc1)CN2CCC(=O)OCC (stereo not shown) [Example 30],inhibition at 1 µM,[1],28.4%
CCCCCCCCCOc1ccc2c(c1)C(CCn1ccnc1)CN2CCC(=O)O (stereo not shown) [Example 27],inhibition at 1 µM,[1],27%
same,TXB2,TXB2,4.8 ng/mL
same,IC50,[2],0.26 µM
"CCCCCCOc1ccc2c(c1)C(CCn1ccnc1)CN2CCC(=O)O (stereo not shown) [Example 9, 5-Hexyloxy-3-[2-(1H-imidazol-1-yl)ethyl]-1-indolinepropionic acid]",inhibition at 1 µM,[1],28.3%
O=C(O)CCN1CC(CCn2ccnc2)c2cc(C3CCCCC3)ccc21 (stereo not shown) [Example 17],inhibition at 1 µM,[1],15.7%
same,IC50,[2],2.05 µM
CCCCCOc1ccc2c(c1)C(CCn1ccnc1)CN2CCC(=O)O (stereo not shown) [Example 21],inhibition at 1 µM,[1],5.5%
same,TXB2,TXB2,6.7 ng/mL
same,IC50,[2],1.84 µM
CCCCCCCCCCCCOc1ccc2c(c1)C(CCn1ccnc1)CN2CCC(=O)O (stereo not shown) [Example 29],inhibition at 1 µM,[1],12.1%
same,IC50,[2],0.24 µM
CCCOc1ccc2c(c1)C(CCn1ccnc1)CN2CCC(=O)OCC (stereo not shown) [Example 18],inhibition at 1 µM,[1],21.8%
CCCc1ccc2c(c1)C(CCn1ccnc1)CN2CCC(=O)OCC (stereo not shown) [Example 12],inhibition at 1 µM,[1],19.7%
same,IC50,[2],4.8 µM
"O=C(O)CCCC/C=C(\c1ccccc1)c1cccnc1 [CV-4151, reference compound]",TXB2,TXB2,11.0 ng/mL
CCCCCCCCCOc1ccc2c(c1)C(CCn1ccnc1)CN2CCC(=O)OCC (stereo not shown) [Example 26],inhibition at 1 µM,[1],40.5%
"O=C(O)CCN1CC(CCn2ccnc2)c2ccccc21 (stereo not shown) [Example 2, 3-[2-(1 H-Imidazol-1-yl)ethyl]-1-indolinepropionic acid]",inhibition at 1 µM,[1],8.7%
"O=C(O)/C=C/c1ccc(Cn2ccnc2)cc1 [OKY-046, reference compound]",inhibition at 1 µM,[1],4%
CCCc1ccc2c(c1)C(CCn1ccnc1)CN2CCC(=O)O (stereo not shown) [Example 13],inhibition at 1 µM,[1],10.4%
same,IC50,[2],21.9 µM
CCOC(=O)CCN1CC(CCn2ccnc2)c2cc(OC)ccc21 (stereo not shown) [Example 10],inhibition at 1 µM,[1],54.5%
same,IC50,[2],18.7 µM
COc1ccc2c(c1)C(CCn1ccnc1)CN2CCC(=O)O (stereo not shown) [Example 11],inhibition at 1 µM,[1],36%
same,IC50,[2],73 µM
C=CCOc1ccc2c(c1)C(CCn1ccnc1)CN2CCC(=O)O (stereo not shown) [Example 31],inhibition at 1 µM,[1],0.2%
same,IC50,[2],20.3 µM
"CCCCCCOc1ccc2c(c1)C(CCn1ccnc1)CN2CCC(=O)OCC (stereo not shown) [Example 8, Ethyl 5-hexyloxy-3-[2-(1 H-imidazol-1-yl)ethyl]-1-indolinepropionate]",inhibition at 1 µM,[1],20.8%
same,IC50,[2],2.6 µM
CCCCCOc1ccc2c(c1)C(CCn1ccnc1)CN2CCC(=O)OCC (stereo not shown) [Example 20],inhibition at 1 µM,[1],45.2%
same,TXB2,TXB2,5.1 ng/mL
same,IC50,[2],2.05 µM
CCCOc1ccc2c(c1)C(CCn1ccnc1)CN2CCC(=O)O (stereo not shown) [Example 19],inhibition at 1 µM,[1],3.6%
same,IC50,[2],19.4 µM
CCCCCCCOc1ccc2c(c1)C(CCn1ccnc1)CN2CCC(=O)O (stereo not shown) [Example 23],inhibition at 1 µM,[1],11.5%
same,IC50,[2],0.25 µM
